Results on nine compounds are retold here after patent US6440946B1, “Multiple-agents-binding compound, production and use thereof” (Takeda Chemical Industries, Ltd., priority 1999, dated 2002).

As usually defined, the EC50 is the midpoint of the concentration-response curve. Lower therefore signals greater potency. As a reminder, the inhibition is the share of the control response that was lost under treatment.

In experiment [1] the test system is HIV-1 IIIB (HTLV-IIIB) virus in CEMM-SS cells. Kind of experiment: Anti-HIV activity: prevention of death of HIV-infected T cell lymphocytes (MTT method). It is filed as cell-based, HIV type 1 virus. As to conditions: 6 days. Here is the method:
Anti-HIV activity of the compounds of the present invention was evaluated according to the method described below.
The inhibitory effect on virus particle formation of HIV virus with which T cell lymphocytes were infected was evaluated according to ability to prevent T cell lymphocytes infected with said HIV virus from dying.
According to the test method described in the literature (O. S. Weislow et al., J. Natl. Cancer Inst., 81, 577 (1989), etc.), anti-HIV activity of the compounds of the present invention was evaluated. As the T cell lymphocytes, CEMM-SS cells were used. As the HIV virus, HIV-1 IIIB (HTLV-IIIB) virus which is HIV type 1 virus was used. On 96 well microtiter plate containing 200 μl of culture medium (RPMI-1640 medium containing 50 μg/ml of gentamicin and 10% fetal calf serum), determined concentration of Test Compound and HIV-1 IIIB virus (the mount of virus per well is that necessary for completely killing infected cells 6 days after infection), CEMM-SS cell (2.5×10^4 cells/ml) were inoculated and cultivated at 37° C. for 6 days in the incubator containing 5% CO2. Thereafter, the number of living cells was determined by the MTT method (R. Pauwels et al., J. Virol. Methods, 20, 309 (1988), etc.), and the determined value was defined as (ODT)HIV. HIV-non-infected CEMM-SS cells and HIV-infected CEMM-SS cells were respectively cultivated under the same conditions provided that the concentration of Test Compound was zero. Thereafter, the number of living cells was determined, and the respectively determined value was defined as (ODC)MOCK and (ODC)HIV. Using these values, (ODT)HIV, (ODC)MOCK and (ODC)HIV, inhibitory rate, ratio preventing T cell lymphocytes infected with said HIV virus from dying, was calculated according to the following formula:
[(ODT)HIV−(ODC)HIV][/(ODC)MOCK−(ODC)HIV]
Based on EC50 which is the concentration of Test Compound making the calculated inhibitory rate 50%, anti-HIV activity was evaluated.
(§1) The results of HIV protease inhibitory activity and anti-HIV activity of the compound of the present invention evaluated by the above-mentioned methods were shown in Table 1, together with the results of Compound of Reference Example. In Table 1, HIV protease inhibitory activity is shown as the inhibitory rate when the final concentration of Test Compound in the reaction solution was 5 μM, and the values in parentheses correspond to the inhibitory rate when the final concentration of Test Compound in the reaction solution was 50 nM.
(Tetrazolium assays rely on reduction of a dye to a coloured formazan, in cell work by metabolically active cells.)

In experiment [2] the target is T1, recombinant HIV protease (Human immunodeficiency virus type 1 group M subtype B, UniProt P12497).
T1 construct: Instead of natural HIV protease, recombinant HIV protease already reported in the literature
The experiment is described as follows: HIV protease inhibitory activity (cleavage of synthetic nonapeptide substrate, reverse phase HPLC). The experiment is classed as biochemical. As to conditions: pH5.5, 37° C., 60 minutes; for Inhibition of HIV protease (inhibitory rate) / inhibition at 5 µM: final concentration of Test Compound 5 μM; for inhibition at 5 µM: read-out: Inhibition of HIV protease (inhibitory rate). The method, then:
HIV protease inhibitory activity of the compounds of the present invention [Compounds of Working Examples 1-7] was evaluated according to the test method already reported in the literature (Journal of Synthetic Organic Chemistry, Japan, 52,403-412 (1994), Japanese Patent Unexamined Publication No. 1993-170722, etc.). In addition, using Compounds of Reference Examples 1-4, similar test was carried out.
Instead of natural HIV protease, recombinant HIV protease already reported in the literature (cf. Science, 230, 949 (1985)) was used for the evaluation of HIV protease inhibitory activity (cf. Japanese Patent Unexamined Publication No. 1993-170722, etc.). As the substrate of said recombinant HIV protease, synthetic nonapeptide substrate (Ac-Arg-Ala-Ser-Gln-Asn-Tyr-Pro-Val-Val-NH2 trifluoroacetate) was used, and protease activity was determined.
Fifteen μl of the reaction solution containing 100 mM (final concentration) of MES buffer solution (pH5.5), 40 mM of said substrate, 9.2 μg of said recombinant HIV protease, and various concentration of Test Compound (for example, Test Compound was previously dissolved in DMSO, etc.) was used, and the reaction was started after said recombinant HIV protease had been added to the reaction solution. The reaction was carried out at 37° C. for 60 minutes, and then, the reaction was stopped by addition of 15 μl of acetonitrile. The amount of the peptide fragment produced by cleaving the substrate between -Tyr . . . Pro- of said substrate was determined according to the internal standard method of reverse phase HPLC. When the concentration of test compound was zero, protease activity was defined as 100%; when the peptide fragment was not detected, remaining protease activity was defined as 0%; and remaining protease activity was calculated based on the determined concentration of the peptide fragment. When the remaining protease activity was 0%, inhibition rate which indicates activity inhibiting HIV protease was defined as 100%, and the inhibition rate was defined according to the value taken the remaining protease activity indicated by said percentage from 100%.
as §1

[3] abbreviates: Human immunodeficiency virus 1, 144 h.
The mark [4] stands for this setting: final concentration of Test Compound 50 nM.

Take `Cc1cn([C@H]2C[C@H](N=[N+]=[N-])[C@@H](CO)O2)c(=O)[nH]c1=O` [AZT, 3′-azido-3′-deoxythymidine, reference compound]: a half-maximal effect in experiment [1] (setting [3]) (EC50) was put at 11 nM. That is a double-digit nanomolar value.
`CC(C)(C)NC(=O)[C@@H]1CSCN1C(=O)[C@@H](O)[C@H](Cc1ccccc1)NC(=O)CC(C)(C)C(=O)O` [Ref. Ex. 1, (R)-N-t-butyl-3-[(2S,3S)-3-(3,3-dimethylsuccinyl)amino-2-hydroxy-4-phenylbutyryl]-1,3-thiazolidine-4-carboxamide]: in experiment [2] (setting [4]), the “Inhibition of HIV protease (inhibitory rate, values in parentheses)” value is “(20%)”. Also, the “Inhibition of HIV protease (inhibitory rate)” value (“Inhibition … (inhibitory rate)” below) in experiment [2] came to 93%.
In the same order, the values of `CC(C)(C)NC(=O)[C@H]1N(C(=O)[C@@H](O)[C@H](Cc2ccccc2)NC(=O)CC(C)(C)C(=O)O)CSC1(C)C` [Ref. Ex. 2, (R)-N-t-butyl-3-[(2S,3S)-3-(3,3-dimethylsuccinyl)amino-2-hydroxy-4-phenylbutyryl]-5,5-dimethyl-1,3-thiazolidine-4-carboxamide] are “(76%)” and 99%.
Consider `Cc1ccccc1CNC(=O)[C@@H]1CSCN1C(=O)[C@@H](O)[C@H](Cc1ccccc1)NC(=O)CC(C)(C)C(=O)O` [Ref. Ex. 3, (R)-N-(2-methylbenzyl)-3-[(2S,3S)-3-(3,3-dimethylsuccinyl)amino-2-hydroxy-4-phenylbutyryl]-1,3-thiazolidine-4-carboxamide], for which the “Inhibition … (inhibitory rate)” value in experiment [2] was 87%.
As to `Cc1ccccc1CNC(=O)[C@H]1N(C(=O)[C@@H](O)[C@H](Cc2ccccc2)NC(=O)CC(C)(C)C(=O)O)CSC1(C)C` [Ref. Ex. 4, (R)-N-(2-methylbenzyl)-3-[(2S,3S)-3-(3,3-dimethylsuccinyl)amino-2-hydroxy-4-phenylbutyryl]-5,5-dimethyl-1,3-thiazolidine-4-carboxamide], the “Inhibition of HIV protease (inhibitory rate, values in parentheses)” value in experiment [2] (setting [4]) is on record as “(78%)”. The “Inhibition … (inhibitory rate)” value in experiment [2] was 100%.
In turn, `Cc1ccccc1CNC(=O)[C@@H]1CSCN1C(=O)[C@@H](O)[C@H](Cc1ccccc1)NC(=O)CC(C)(C)C(=O)OC[C@H]1O[C@@H](n2cc(C)c(=O)[nH]c2=O)CC1N=[N+]=[N-]` (some centres unmarked) [Working Ex. 4] registered an EC50 in experiment [1] of 3.8 nM. In addition, the “Inhibition … (inhibitory rate)” value in experiment [2] was 11%.
Compound `Cc1ccccc1CNC(=O)[C@@H]1CSCN1C(=O)[C@@H](O)[C@H](Cc1ccccc1)NC(=O)C(C)C(C)C(=O)OC[C@H]1O[C@@H](n2cc(C)c(=O)[nH]c2=O)CC1N=[N+]=[N-]` (stereo partly drawn) [Working Ex. 5, {(2S,5R)-3-azido-5-[5-methyl-2,4-dioxo-3,4-dihydro-1(2H)-pyrimidinyl]tetrahydro-2-furanyl}methyl 4-([(1S,2S)-1-benzyl-2-hydroxy-3-((4R)-4-([(2-methylbenzyl)amino]carbonyl}-1,3-thiazolidin-3-yl)-3-oxopropyl]amino)-2,3-dimethyl-4-oxobutanoate] returned an EC50 in experiment [1] (setting [3]) of 8.9 nM. In addition, the inhibition at 5 µM in experiment [2] (pH 5.5) came to 57%.
In experiment [1], `Cc1ccccc1CNC(=O)[C@H]1N(C(=O)[C@@H](O)[C@H](Cc2ccccc2)NC(=O)CC(C)(C)C(=O)OC[C@H]2O[C@@H](n3cc(C)c(=O)[nH]c3=O)CC2N=[N+]=[N-])CSC1(C)C` (some centres unmarked) [Working Ex. 6] registered an EC50 of 0.24 nM. Also, the “Inhibition … (inhibitory rate)” value in experiment [2] is reported as 83%.
Regarding `Cc1ccccc1CNC(=O)[C@H]1N(C(=O)[C@@H](O)[C@H](Cc2ccccc2)NC(=O)C(C)C(C)C(=O)OC[C@H]2O[C@@H](n3cc(C)c(=O)[nH]c3=O)CC2N=[N+]=[N-])CSC1(C)C` (stereo partly drawn) [Working Ex. 7, {(2S,5R)-3-azido-5-[5-methyl-2,4-dioxo-3,4-dihydro-1(2H)-pyrimidinyl]tetrahydro-2-furanyl}methyl 4-([(1S,2S)-1-benzyl-3-((4R)-5,5-dimethyl-4-{[(2-methylbenzyl)amino]carbonyl}-1,3-thiazolidin-3-yl)-2-hydroxy-3-oxopropyl]amino}-2,3-dimethyl-4-oxobutanoate], in experiment [1] (setting [3]), the EC50 turned out to be 7.3 nM. Besides, the inhibition at 0.05 µM in experiment [2] (pH 5.5, final concentration of Test Compound 50 nM, read-out: Inhibition of HIV protease (inhibitory rate, values in parentheses)) stood at 39%. Besides, the inhibition at 5 µM in experiment [2] (pH 5.5) stood at 96%.
